Results published in ChEMBL document CHEMBL1152625, “Pochonicine, a polyhydroxylated pyrrolizidine alkaloid from fungus Pochonia suchlasporia var. suchlasporia TAMA 87 as a potent beta-N-acetylglucosaminidase inhibitor” (Bioorg Med Chem, 2009).
The source made the active and inactive calls. No cut-off for these calls is given here.

Legend:
[1] = Inhibition of Spodoptera litura beta-N-acetylglucosaminidase by pNP-GlcNAc substrate hydrolysis assay
[2] = Inhibition of Aspergillus oryzae beta-N-acetylglucosaminidase by pNP-GlcNAc substrate hydrolysis assay
[3] = Inhibition of Penicillium oxalicum beta-N-acetylglucosaminidase by pNP-GlcNAc substrate hydrolysis assay
[4] = Inhibition of bovine kidney beta-N-acetylglucosaminidase by pNP-GlcNAc substrate hydrolysis assay; design: species or system Bos taurus
[5] = Inhibition of jack bean beta-N-acetylglucosaminidase by pNP-GlcNAc substrate hydrolysis assay; design: species or system Canavalia ensiformis
[6] = Competitive inhibition of Spodoptera litura beta-N-acetylglucosaminidase by pNP-GlcNAc substrate hydrolysis assay
[7] = Noncompetitive inhibition of Aspergillus oryzae beta-N-acetylglucosaminidase by pNP-GlcNAc substrate hydrolysis assay
[8] = Mixed type inhibition of Penicillium oxalicum beta-N-acetylglucosaminidase by pNP-GlcNAc substrate hydrolysis assay
[9] = Noncompetitive inhibition of bovine kidney beta-N-acetylglucosaminidase by pNP-GlcNAc substrate hydrolysis assay; design: species or system Bos taurus
[10] = Competitive inhibition of jack bean beta-N-acetylglucosaminidase by pNP-GlcNAc substrate hydrolysis assay; design: species or system Canavalia ensiformis
Bacillus sp. = assay: Inhibition of Bacillus sp. chitinase at 209 uM by pNP-GlcNAc2 substrate hydrolysis assay
Prunus dulcis = assay: Inhibition of almond beta-glucosidase at 2.38 uM by pNP-beta-Glc substrate hydrolysis assay
Saccharomyces cerevisiae = assay: Inhibition of yeast alpha-glucosidase at 2.38 uM by […] substrate hydrolysis assay
[11] = Competitive inhibition of Aspergillus oryzae beta-N-acetylglucosaminidase by pNP-GlcNAc substrate hydrolysis assay
[12] = Competitive inhibition of Penicillium oxalicum beta-N-acetylglucosaminidase by pNP-GlcNAc substrate hydrolysis assay
[13] = Competitive inhibition of bovine kidney beta-N-acetylglucosaminidase by pNP-GlcNAc substrate hydrolysis assay; design: species or system Bos taurus

Ki [11] [nM] | Ki [12] [nM] | Ki [13] [nM] | Ki [4] [nM] | Ki [5] [nM] | Compound | IC50 [1] [nM] | IC50 [2] [nM] | IC50 [3] [nM] | IC50 [4] [nM] | IC50 [5] [nM] | Ki [6] [nM] | Ki [7] [nM] | Ki [8] [nM] | Ki [9] [nM] | Ki [10] [nM] | Activity (Bacillus sp.) | Activity (Prunus dulcis) | Activity (Saccharomyces cerevisiae)
– | – | – | – | – | CC(=O)NC[C@H]1[C@H](O)[C@H](O)[C@@H]2[C@H](O)C[C@@H](CO)N21 (relative stereo) [POCHONICINE] | 5.96 | 20.3 | 42.1 | 1.06 | 0.288 | 1.77 | 141 | 13.2 | 1.04 | 0.162 | inactive | inactive | inactive
9.69 | 8.11 | 1.64 | – | – | CC(=O)N[C@H]1c2nc(CC(=O)O)cn2[C@H](CO)[C@H](O)[C@@H]1O [NAGSTATIN] | 5.85 | 10.6 | 60.6 | 1.71 | – | 1.1 | – | – | – | 1.41 | – | – | –
– | – | – | 68600 | 3600 | CC(=O)NC[C@@H]1N[C@H](CO)[C@@H](O)[C@@H]1O | – | – | – | – | – | – | – | – | – | – | – | – | –
– | – | – | 9800 | 1900 | CC(=O)NC[C@H]1N[C@H](CO)[C@@H](O)[C@@H]1O | – | – | – | – | – | – | – | – | – | – | – | – | –
